Consider 1 compound from patent publication US7303895B1 (priority 1999, dated 2007).

Holding throughout (type): cell-based
Experiment [1] deals with T1, mutant yeast transformed by 4.17 (truncated tCTL1) (Torpedo marmorata, UniProt Q9I9B9, G501V).
T1 construct: the suppressor, 4.17, whose first ATG corresponds to M471 of tCTLI; expressed in transfected cells; host or cells: Saccharomyces cerevisiae ctr ise URA3 mutant strain, plasmid pFL61
Kind of experiment: saturable [3H]choline absorption by mutant yeast transformed with clone 4.17. The settings on record: 1 μM HC-3, 30° C., 30 minutes. How it is done:
The transformed yeast was incubated at 30° C. for 30 minutes with 25 nM [3H]-choline.
The plasmids were isolated from colonies having a strong choline-dependent growth phenotype, and they were used to transform aliquot fractions of mutant yeast in order to eliminate the ctr reverse mutants and the yeast suppressor mutations.
The culture density was normalized by measuring the OD600.

The next experiment relates to N18 cells. As to the kind of experiment: capture of tritiated choline by N18 cells transiently transfected with rCTL1a/pcDNA3, rCTL1b/pcDNA3 or pcDNA3. Conditions: 10 μM of the substance; 24 hours after transfection; same in all three transfections (rCTL1a, rCTL1b, empty pcDNA3); result not shown.
In a further experiment the target is T2, CTL1 in glioma cell C6 (Rattus norvegicus, UniProt Q8VII6, K645E/R267S).
T2 construct: expressed in transfected cells; host or cells: glioma C6 cells, transient transfection, vector pcDNA3
T2 sequence (Q8VII6 1-653 isoform Q8VII6-2 R267S/K645E): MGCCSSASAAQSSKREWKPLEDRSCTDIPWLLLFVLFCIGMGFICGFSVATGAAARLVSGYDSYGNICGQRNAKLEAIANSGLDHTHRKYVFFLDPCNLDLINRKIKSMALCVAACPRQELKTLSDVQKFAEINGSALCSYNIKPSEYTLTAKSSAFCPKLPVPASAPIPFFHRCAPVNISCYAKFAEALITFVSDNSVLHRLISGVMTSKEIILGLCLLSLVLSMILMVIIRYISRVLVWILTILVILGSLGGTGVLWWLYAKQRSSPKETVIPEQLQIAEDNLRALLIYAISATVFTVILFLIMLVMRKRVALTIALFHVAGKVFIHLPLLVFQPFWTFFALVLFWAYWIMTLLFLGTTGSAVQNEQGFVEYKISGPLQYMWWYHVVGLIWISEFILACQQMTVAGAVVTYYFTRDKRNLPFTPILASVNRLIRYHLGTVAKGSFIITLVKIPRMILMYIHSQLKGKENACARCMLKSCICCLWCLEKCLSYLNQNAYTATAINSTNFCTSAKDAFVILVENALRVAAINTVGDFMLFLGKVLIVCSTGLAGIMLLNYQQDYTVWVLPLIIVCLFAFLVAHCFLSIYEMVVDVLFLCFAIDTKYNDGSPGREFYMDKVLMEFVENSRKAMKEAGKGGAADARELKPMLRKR
Kind of experiment: total absorption of choline by glioma C6 cells transiently transfected with CTL1pcDNA3. The settings on record: hemicholinium-3; 48 hours after transfection; only C6-CTL1pcDNA3 cells, not empty-plasmid cells. The text has this:
FIGS. 8A-8C: Transient transfection of glioma cell C6 with the vector CTL1pcDNA3 described in FIG. 6.

T1 sequence (Q9I9B9 471-646 G501V): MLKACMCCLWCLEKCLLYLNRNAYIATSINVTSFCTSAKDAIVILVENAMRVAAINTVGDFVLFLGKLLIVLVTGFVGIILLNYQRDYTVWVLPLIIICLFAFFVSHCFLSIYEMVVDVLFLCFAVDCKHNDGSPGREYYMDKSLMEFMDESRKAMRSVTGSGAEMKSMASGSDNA

Consider `C[N+]1(C)CCOC(O)(c2ccc(-c3ccc(C4(O)C[N+](C)(C)CCO4)cc3)cc2)C1.[Br-].[Br-]` (stereo not drawn) [HC-3, hemicholinium-3], for which the “saturable [3H]choline absorption by the yeast transformed in 4.17” value in experiment [1] was “inhibited”. In addition, the “inhibition of capture of tritiated choline” value with N18 cells is “about 50%”. Besides, the “inhibition of total absorption of choline” value on CTL1 in glioma cell C6 is “inhibition”.
